biological target: T1, Promotilin (Oryctolagus cuniculus, UniProt P27114)
T1 sequence (P27114 whole entry): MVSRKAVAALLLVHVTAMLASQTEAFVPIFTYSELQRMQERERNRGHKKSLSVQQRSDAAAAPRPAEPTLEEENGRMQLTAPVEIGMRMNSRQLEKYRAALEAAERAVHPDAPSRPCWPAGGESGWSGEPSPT

Row | SMILES | Ki
1 | CC[C@H]1OC(=O)[C@H](C)[C@@H](O[C@H]2C[C@@](C)(OC)[C@@H](O)[C@H](C)O2)[C@H](C)[C@@H](O[C@@H]2O[C@H](C)C[C@H](N(C)C(C)C)[C@H]2O)[C@@]2(C)CC(C)=C(O2)[C@H](C)C(=O)[C@]1(C)OC [Mitemcinal] | 31.6 nM
2 | C[N+](C)(C)CCOC(N)=O [(2-Hydroxyethyl)trimethyl ammonium chloride carbamate] | 158 nM
3 | CC[C@H]1OC(=O)[C@H](C)[C@@H](O[C@H]2C[C@@](C)(OC)[C@@H](O)[C@H](C)O2)[C@H](C)[C@@H](O[C@H]2O[C@@H](C)C[C@@H](N(C)C)[C@@H]2O)[C@](C)(O)C[C@@H](C)C(=O)[C@H](C)[C@@H](O)[C@]1(C)O [(3R,4S,5S,6R,7R,9R,11R,12R,13S,14R)-6-{[(2R,3S,4R,6S)-4-(dimethylamino)-3-hydroxy-6-methyloxan-2-yl]oxy}-14-ethyl-7,12,13-trihydroxy-4-{[(2R,4R,5S,6S)-5-hydroxy-4-methoxy-4,6-dimethyloxan-2-yl]oxy}-3,5,7,9,11,13-hexamethyl-1-oxacyclotetradecane-2,10-dione] | 1000 nM
4 | CC[C@H](C)[C@H](NC(=O)[C@@H]1CCCN1C(=O)[C@@H](NC(=O)[C@@H](N)Cc1ccccc1)C(C)C)C(=O)N[C@@H](Cc1ccccc1)C(=O)N[C@H](C(=O)N[C@@H](Cc1ccc(O)cc1)C(=O)NCC(=O)N[C@@H](CCC(=O)O)C(=O)N[C@@H](CC(C)C)C(=O)N[C@@H](CCC(N)=O)C(=O)N[C@@H](CCCNC(=N)N)C(=O)N[C@@H](CCSC)C(=O)N[C@@H](CCC(N)=O)C(=O)N[C@@H](CCC(=O)O)C(=O)N[C@@H](CCCCN)C(=O)N[C@@H](CCC(=O)O)C(=O)N[C@@H](CCCNC(=N)N)C(=O)N[C@@H](CC(N)=O)C(=O)N[C@@H](CCCCN)C(=O)NCC(=O)N[C@@H](CCC(N)=O)C(=O)O)[C@@H](C)O [CAS_52906-92-0] | 3.98 nM

— BindingDB's records for doi:10.1046/j.1440-1681.1999.03022.x (University of Melbourne, 1999)
